Results: patent US20110152313A1 (MACQUARIE UNIVERSITY, priority 2008, published 2011)

Assays:
Assay in all cases: kinase binding screen (kinase-tagged T7 phage, qPCR), % Ctrl
[1] = biological target: T1, DRAK1 (Homo sapiens, UniProt Q9UEE5)
T1 sequence (Q9UEE5 1-414): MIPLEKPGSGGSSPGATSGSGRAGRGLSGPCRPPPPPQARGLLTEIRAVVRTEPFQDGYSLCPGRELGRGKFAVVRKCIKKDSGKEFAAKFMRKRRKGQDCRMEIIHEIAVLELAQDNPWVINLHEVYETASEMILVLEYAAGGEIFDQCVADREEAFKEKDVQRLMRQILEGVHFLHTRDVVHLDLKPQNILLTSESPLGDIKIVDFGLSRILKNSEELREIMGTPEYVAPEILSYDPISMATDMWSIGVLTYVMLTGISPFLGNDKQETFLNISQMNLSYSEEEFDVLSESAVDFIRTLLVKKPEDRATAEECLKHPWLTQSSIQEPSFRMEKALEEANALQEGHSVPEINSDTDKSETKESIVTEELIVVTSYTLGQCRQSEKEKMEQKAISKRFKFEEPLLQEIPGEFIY
Procedure: (§1) Percentage kinase inhibition at a set concentration was performed by methods well known in the prior art (Fabian, M. A. et al. Nat. Biotechnol. 2005, 23, 329; Karaman et al. (2008) Nat. Biotechnol. […], 26, 127). Briefly, kinase-tagged T7 phage strains were grown in parallel in 24-well blocks in an E. coli host derived from the BL21 strain. E. coli were grown to log-phase and infected with T7 phage from a frozen stock (multiplicity of infection=0.4) and incubated with shaking at 32° C. until lysis (90-150 minutes). The lysates were centrifuged (6,000×g) and filtered (0.2 μm) to remove cell debris. […] The liganded beads were blocked with excess biotin and washed with blocking buffer (SeaBlock (Pierce); 1% BSA, 0.05% Tween 20, 1 mM DTT) to remove unbound ligand and to reduce non-specific phage binding. […] Test compounds were prepared as 40× stocks in 100% DMSO and directly diluted into the assay. All reactions were performed in polypropylene 384-well plates in a final volume of 0.04 mL. […] The kinase concentration in the eluates was measured by qPCR.

[2] = biological target: T2, ULK1 (Homo sapiens, UniProt O75385)
T2 sequence (O75385 1-1050): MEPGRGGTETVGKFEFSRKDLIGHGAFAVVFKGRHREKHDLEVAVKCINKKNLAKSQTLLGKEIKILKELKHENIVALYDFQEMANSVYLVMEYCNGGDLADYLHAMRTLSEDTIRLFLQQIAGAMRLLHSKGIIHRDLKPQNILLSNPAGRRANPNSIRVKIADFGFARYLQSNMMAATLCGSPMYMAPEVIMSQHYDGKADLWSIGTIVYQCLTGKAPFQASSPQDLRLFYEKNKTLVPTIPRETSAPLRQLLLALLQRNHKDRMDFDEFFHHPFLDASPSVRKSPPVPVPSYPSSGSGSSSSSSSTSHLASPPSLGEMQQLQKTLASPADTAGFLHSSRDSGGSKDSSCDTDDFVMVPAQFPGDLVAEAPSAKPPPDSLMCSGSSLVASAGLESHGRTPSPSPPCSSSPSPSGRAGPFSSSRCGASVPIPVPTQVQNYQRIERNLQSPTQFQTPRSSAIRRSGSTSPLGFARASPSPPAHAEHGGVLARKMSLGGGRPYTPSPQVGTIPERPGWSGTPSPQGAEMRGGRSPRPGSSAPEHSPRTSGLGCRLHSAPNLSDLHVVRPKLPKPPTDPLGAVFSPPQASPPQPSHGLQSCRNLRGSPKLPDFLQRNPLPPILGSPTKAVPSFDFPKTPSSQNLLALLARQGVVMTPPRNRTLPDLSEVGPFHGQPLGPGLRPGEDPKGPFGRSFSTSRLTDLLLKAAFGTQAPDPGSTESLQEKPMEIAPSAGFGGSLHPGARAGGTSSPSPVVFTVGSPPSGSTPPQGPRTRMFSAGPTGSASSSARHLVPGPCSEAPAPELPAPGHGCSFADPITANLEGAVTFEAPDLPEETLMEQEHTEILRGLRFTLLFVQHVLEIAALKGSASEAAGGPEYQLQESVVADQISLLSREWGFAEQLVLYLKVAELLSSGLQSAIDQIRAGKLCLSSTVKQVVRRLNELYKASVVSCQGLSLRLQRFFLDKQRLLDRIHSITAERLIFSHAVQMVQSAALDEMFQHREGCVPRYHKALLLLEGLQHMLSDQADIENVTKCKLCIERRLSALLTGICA
Procedure: as §1

[3] = biological target: BMPR1B (Homo sapiens, UniProt O00238)
Procedure: as §1

[4] = biological target: T3, MAP3K2 (Homo sapiens, UniProt Q9Y2U5)
T3 sequence (Q9Y2U5 1-619): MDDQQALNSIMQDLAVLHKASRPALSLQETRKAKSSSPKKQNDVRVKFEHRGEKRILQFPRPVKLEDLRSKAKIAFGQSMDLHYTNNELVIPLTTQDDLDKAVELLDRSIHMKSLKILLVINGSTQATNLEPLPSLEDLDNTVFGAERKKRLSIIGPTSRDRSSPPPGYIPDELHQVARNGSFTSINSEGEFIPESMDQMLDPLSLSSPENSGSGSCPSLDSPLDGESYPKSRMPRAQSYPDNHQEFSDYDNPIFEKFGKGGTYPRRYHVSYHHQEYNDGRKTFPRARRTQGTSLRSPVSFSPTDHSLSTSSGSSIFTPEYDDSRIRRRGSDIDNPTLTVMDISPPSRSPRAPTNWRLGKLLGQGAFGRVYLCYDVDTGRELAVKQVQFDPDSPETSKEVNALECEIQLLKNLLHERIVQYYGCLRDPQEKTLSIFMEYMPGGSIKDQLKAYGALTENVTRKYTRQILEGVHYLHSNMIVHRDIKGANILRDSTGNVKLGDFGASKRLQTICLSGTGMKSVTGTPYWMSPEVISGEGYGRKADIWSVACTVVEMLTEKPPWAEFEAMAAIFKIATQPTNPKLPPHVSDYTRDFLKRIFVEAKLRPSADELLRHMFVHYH
Procedure: as §1

[5] = biological target: RPS6KA2(Kin.Dom.2-C-terminal) (Homo sapiens, UniProt Q15349)
Procedure: as §1

BMPR1B, sequence (O00238 14-502): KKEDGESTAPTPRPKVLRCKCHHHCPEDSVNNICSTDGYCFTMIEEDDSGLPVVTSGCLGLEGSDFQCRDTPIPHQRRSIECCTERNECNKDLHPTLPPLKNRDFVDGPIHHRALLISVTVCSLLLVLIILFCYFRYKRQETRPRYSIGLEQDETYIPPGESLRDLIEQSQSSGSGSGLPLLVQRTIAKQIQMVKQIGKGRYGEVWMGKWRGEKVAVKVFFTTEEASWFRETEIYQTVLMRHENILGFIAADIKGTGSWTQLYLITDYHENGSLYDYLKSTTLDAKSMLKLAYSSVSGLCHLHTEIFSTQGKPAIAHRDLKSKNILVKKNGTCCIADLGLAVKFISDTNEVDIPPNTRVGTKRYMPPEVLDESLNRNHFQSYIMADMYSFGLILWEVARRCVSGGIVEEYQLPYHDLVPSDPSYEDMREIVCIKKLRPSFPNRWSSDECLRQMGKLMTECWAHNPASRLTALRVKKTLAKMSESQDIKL
RPS6KA2(Kin.Dom.2-C-terminal), sequence (Q15349 415-672 limits assumed, species assumed): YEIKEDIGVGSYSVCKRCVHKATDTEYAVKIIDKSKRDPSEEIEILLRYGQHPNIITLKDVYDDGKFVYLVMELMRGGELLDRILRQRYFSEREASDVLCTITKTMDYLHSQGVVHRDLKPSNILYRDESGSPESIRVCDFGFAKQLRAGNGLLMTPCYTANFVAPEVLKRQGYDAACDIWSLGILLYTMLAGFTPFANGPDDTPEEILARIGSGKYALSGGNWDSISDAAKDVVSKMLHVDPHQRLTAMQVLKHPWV

| remaining activity at 10 µM ([1]; 10 μM) | remaining activity at 10 µM ([2]; 10 μM) | remaining activity at 10 µM ([3]; 10 μM) | remaining activity at 10 µM ([4]; 10 μM) | remaining activity at 10 µM ([5]; 10 μM) | SMILES | remaining activity at 1 µM [1] | remaining activity at 1 µM [2] | remaining activity at 1 µM [3] | remaining activity at 1 µM [4] | remaining activity at 1 µM [5] |
| --- | --- | --- | --- | --- | --- | --- | --- | --- | --- | --- |
| 86% | 20% | 78% | 70% | 25% | Nc1nc2c(-c3cc(Br)c(Br)[nH]3)nccc2[nH]1 [Ageladine A, ageladine A, reference compound] | 78% | 62% | 100% | 73% | 42% |
| – | – | – | – | – | Nc1nc2c(-c3ccccn3)nccc2[nH]1 [drawing 35, 4-(pyrid-2-yl)-1H-imidazo[4,5-c]pyridin-2-amine] | 56% | 33% | 85% | 54% | 68% |
| – | – | – | – | – | Nc1nc2c(-c3cnc4ccccc4c3)nccc2[nH]1 [drawing 36, 4-(quinolin-3-yl)-1H-imidazo[4,5-c]pyridin-2-amine] | 100% | 91% | 0% | 81% | 100% |
